# Values of other authors in patent US20080003280A1, “Combination cough treatment compounds and method of treating common coughs” (priority 2006, published 2008).
# Assays:
# [1] = system: cough induced with a capsaicin challenge
# cough [2] = details: patients with an upper respiratory tract infection; in combination with a decongestant
# cough [3] = system: cough
smiles,measurement,setting,value
"Cn1cnc2c1c(=O)[nH]c(=O)n2C [Theobromine, 3,7-dihydro-3,7-dimethyl-1H-purine-2,6-dione]",mucociliary clearance,[1]; discovered in the same study,stimulates mucociliary clearance
same,toxicity,[1]; discovered in the same study,low toxicity
same,antitussive effect,"[1]; patients, capsaicin challenge, in comparison to codeine and caffeine, FIG. 2","strong and long lasting antitussive effect, comparable, in fact to codeine"
CN(C)CCC(c1ccc(Br)cc1)c1ccccn1 (stereo not drawn) [brompheniramine],effect on cough,cough [2],improvement in cough
COc1ccc2c(c1)[C@]13CCCC[C@@H]1[C@H](C2)N(C)CC3 [dextromethorphan],cough suppression,cough [3]; 60 mg/dose in adults,Significant cough suppression
same,antitussive effect,"cough [3]; adults, dose 15-30 mg (30 mg in FIG. 4), versus placebo",no greater than placebo
